Test results published in the Kinase Knowledgebase extract (Sharma et al. 2016).

Target: PIK3CA (human) (UniProt P42336)
Assay: Inhibition of PIK3CA Kinase Activity

PIK3CA (human), sequence (P42336 whole entry, looked up): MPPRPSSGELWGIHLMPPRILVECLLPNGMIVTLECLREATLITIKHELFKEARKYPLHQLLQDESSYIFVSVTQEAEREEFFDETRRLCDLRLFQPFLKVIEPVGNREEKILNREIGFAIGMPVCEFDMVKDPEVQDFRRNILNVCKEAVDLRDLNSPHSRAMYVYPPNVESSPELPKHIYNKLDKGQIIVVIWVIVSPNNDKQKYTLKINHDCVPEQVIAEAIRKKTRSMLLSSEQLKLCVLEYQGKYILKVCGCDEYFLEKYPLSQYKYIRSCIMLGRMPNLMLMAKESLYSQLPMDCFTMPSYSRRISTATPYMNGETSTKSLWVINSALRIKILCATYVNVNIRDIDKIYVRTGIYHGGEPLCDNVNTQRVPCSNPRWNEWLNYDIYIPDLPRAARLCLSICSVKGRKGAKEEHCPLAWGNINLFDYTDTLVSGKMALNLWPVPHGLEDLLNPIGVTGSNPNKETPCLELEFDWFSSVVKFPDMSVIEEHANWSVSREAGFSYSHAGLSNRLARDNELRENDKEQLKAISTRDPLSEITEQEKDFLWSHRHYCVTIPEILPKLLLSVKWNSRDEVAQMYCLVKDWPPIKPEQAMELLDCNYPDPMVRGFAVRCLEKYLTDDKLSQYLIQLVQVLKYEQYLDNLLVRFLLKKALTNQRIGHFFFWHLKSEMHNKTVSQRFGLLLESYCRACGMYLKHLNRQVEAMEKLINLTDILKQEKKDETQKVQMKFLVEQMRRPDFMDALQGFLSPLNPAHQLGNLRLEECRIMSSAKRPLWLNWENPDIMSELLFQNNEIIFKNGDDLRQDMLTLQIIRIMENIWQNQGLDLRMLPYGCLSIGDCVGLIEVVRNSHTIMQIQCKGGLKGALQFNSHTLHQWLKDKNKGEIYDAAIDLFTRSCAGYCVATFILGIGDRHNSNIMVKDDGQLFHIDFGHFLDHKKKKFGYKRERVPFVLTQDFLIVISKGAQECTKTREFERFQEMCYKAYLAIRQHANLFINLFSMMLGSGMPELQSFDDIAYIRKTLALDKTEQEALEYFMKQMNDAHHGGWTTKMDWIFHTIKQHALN

| Compound | IC50 [µM] |
| --- | --- |
| Nc1cnc(-c2nc(N3CCOCC3)nc3c2ncn3C2CCN(c3ccccc3)C2)cn1 (stereo not given) | < 1 |
| Nc1cnc(-c2nc(N3CCOCC3)nc3c2ncn3C2CCc3ccccc3C2)cn1 (stereo not given) | < 1 |
| Nc1cnc(-c2nc(N3CCOCC3)nc3c2ncn3-c2ccccc2)cn1 | < 1 |
| CCC(CC)n1cnc2c(-c3cnc(N)cn3)nc(N3CCOCC3)nc21 | < 1 |
| CC(C1CC1)n1cnc2c(-c3cnc(N)cn3)nc(N3CCOCC3)nc21 (stereo not given) | < 1 |
| CC1CCCCC1n1cnc2c(-c3cnc(N)cn3)nc(N3CCOCC3)nc21 (stereo not given) | < 1 |
| Nc1cnc(-c2nc(N3CCOCC3)nc3c2ncn3C2Cc3ccccc3C2)cn1 | < 1 |
| Nc1cnc(-c2nc(N3CCOCC3)nc3c2ncn3Cc2ccccc2)cn1 | < 1 |
| CCC(C)n1c(Br)nc2c(-c3cnc(N)cn3)nc(N3CCOCC3)nc21 (stereo not given) | < 1 |
| Nc1cnc(-c2nc(N3CCOCC3)nc3c2ncn3CC2CC2)cn1 | < 1 |
| CCC(C)n1cnc2c(-c3cnc(N)cn3)nc(N3CCOCC3)nc21 (stereo not given) | < 1 |
| Nc1cnc(-c2nc(N3CCOCC3)nc3c2ncn3C2CCc3ccccc32)cn1 (stereo not given) | < 1 |
| CC(C)C(C)n1cnc2c(-c3cnc(N)cn3)nc(N3CCOCC3)nc21 (stereo not given) | < 1 |
| Cc1cccc(-n2cnc3c(-c4cnc(N)cn4)nc(N4CCOCC4)nc32)c1 | < 1 |
| Nc1cnc(-c2nc(N3CCOCC3)nc3c2ncn3C2CCOC2)cn1 (stereo not given) | < 1 |
| Nc1cnc(-c2nc(N3CCOCC3)nc3c2ncn3C2CCC2)cn1 | < 1 |
| COCC(C)n1cnc2c(-c3cnc(N)cn3)nc(N3CCOCC3)nc21 (stereo not given) | < 1 |
| Nc1cnc(-c2nc(N3CCOCC3)nc3[nH]cnc23)cn1 | < 1 |
| Nc1cnc(-c2nc(N3CCOCC3)nc3c2ncn3C2CCN(c3ccccc3)CC2)cn1 | < 1 |
| CC(C)(C)Cn1cnc2c(-c3cnc(N)cn3)nc(N3CCOCC3)nc21 | < 1 |
| CCC(C#N)n1cnc2c(-c3cnc(N)cn3)nc(N3CCOCC3)nc21 (stereo not given) | < 1 |
| Nc1cnc(-c2nc(N3CCOCC3)nc3c2ncn3Cc2c(F)cccc2F)cn1 | < 1 |
| Nc1cnc(-c2nc(N3CCOCC3)nc3c2ncn3-c2ccc3c(c2)OCO3)cn1 | < 1 |
| Nc1cnc(-c2nc(N3CCOCC3)nc3c2ncn3C2CCCC2)cn1 | < 1 |
| Nc1cnc(-c2nc(N3CCOCC3)nc3c2nc(Br)n3C2CCOC2)cn1 (stereo not given) | < 1 |
